Measured values taken from paper PMC5797143, “Epigenetic modulation of inflammation and synaptic plasticity promotes resilience against stress in mice” (Nature Communications, 2018).

Tests used:
[1] = system: C57BL/6 mice subjected to RSDS; test: RSDS, prophylactic treatment; type: in vivo, mouse; conditions: 5 mg/kg-BW/day DHCA or 500 ng/kg-BW/day Mal-gluc alone prior to RSDS
Description: To test the efficacy of BDPP in promoting resilience in stress-mediated depression, we treated C57BL/6 male mice with BDPP or vehicle for 2 weeks prior to and throughout RSDS and then performed social avoidance/interaction (SI) testing (Fig. 1a).
Based on the dose–response studies, we chose 5 mg/kg-BW/day DHCA and 500 ng/kg-BW/day Mal-gluc for the preclinical studies. We tested the prophylactic effect by treating mice with a mixture of DHCA/Mal-gluc for 2 weeks prior to and throughout RSDS (Fig. 3c). […] Following SI testing, mice were subjected to a sucrose preference test to evaluate the treatment effect on stress-induced anhedonia.
Male C57BL/6 mice (8-week-old) were randomly grouped into two groups: one group received regular drinking water; the other group was treated with BDPP composed of GSPE, RESV and CGJ, delivered through their drinking water, starting 2 weeks prior to RSDS and throughout RSDS and SI testing. The calculated daily intake of GSPE was 200 mg/kg body weight (BW), RESV was 300 mg/kg BW and CGJ was 1 ml/day.
To facilitate the follow-up sucrose preference test, the delivery of the drinking solution was through two 50-ml tubes with sipper top for each cage, starting from the day of initiation of treatment and the two tubes were regularly switched during the treatment. In parallel control studies, mice received similar treatment but were not subjected to RSDS. For therapeutic studies, susceptible mice (SI <0.8) were identified and randomly grouped into two groups either treated with vehicle or DHCA/Mal-gluc for 2 weeks. Mice were subjected to SI, sucrose preference, and splash testing. For testing the therapeutic efficacy of Imipramine, susceptible mice were treated with Imipramine (20 mg/kg-BW/day, i.p.) for 34 days. On day 35, mice were tested for SI 15–20 min after the last injection. […]
All social interaction (SI) tests were performed under red-light conditions. […] Their movements were automatically monitored and recorded (Ethovision 3.0; Noldus Information Technology) for 2.5 min in the absence (target absent phase) of a novel CD-1 mouse and followed by 2.5 min exploratory behavior in the presence of a caged CD-1 mouse (target present phase). SI behavior was then calculated as a ratio of the time spent in the interaction zone with the target present divided by the time spent in the interaction zone with the target absent. […]
Mice were given access to a two-bottle choice of water or 1% sucrose solution and the consumption of each solution was recorded once every 24 h for 48 or 72 h. […] Sucrose preference was calculated as a percentage of sucrose consumption over total liquid consumption. […]

[2] = In vivo safety: plasma ALP, AST, ALT, BUN; design: species or system mouse; conditions: 2 weeks, all doses tested
Description: We then initiated dose response and safety studies in mice to determine testing dosages and safety of DHCA and Mal-gluc. C57BL/6 mice were treated with either DHCA (doses ranging from 50 µg to 50 mg/kg-BW/day) or Mal-gluc (doses ranging from 50 ng to 5 mg/kg-BW/day) for 2 weeks to simulate long-term administration. Mice treated with DHCA were challenged with intraperitoneal (i.p.) injection of 0.4 mg/kg-BW LPS and plasma levels of IL-6 were measured 6 h post injection. […] Following common discovery-stage practices, we measured the plasma levels of alkaline phosphatase (ALP), aspartate aminotransferase (AST), and alanine aminotransferase (ALT) for liver function and blood urea nitrogen (BUN) for renal function.
Male C57BL/6 J mice (8-week-old) were placed on a polyphenol-free AIN-93M diet and treated with various doses of DHCA (vehicle, 50 µg, 500 µg, 5 mg, and 50 mg/kg-BW/day), delivered through their drinking water for two weeks. Animals were then sacrificed and plasma was collected for routine biochemistry panel analysis including ALP, ALT, and AST for liver function and blood urea nitrogen (BUN) content for kidney function. A separate group of mice was similarly treated and challenged with an i.p. injection of 0.4 mg/kg body weight LPS and plasma was collected 6 h post injection for IL-6 analysis. […]

[3] = system: MSN-enriched primary neurons and PBMCs; test: LDH release assay; type: cell-based, mouse
Description: MTT and LDH release assays were conducted in MSN-enriched primary neurons and in PBMCs[64]. Cellular cytotoxicity was conducted in HepG2 cells using high content screening (HCS) protocols. Briefly, HepG2 cells were plated on 384-well tissue culture treated black walled clear bottomed polystyrene plates and treated with varying concentrations of Mal-gluc or DHCA. The cells were loaded with the relevant dye/antibody for each cell-health marker following incubation, including cell count, markers for nuclear size, DNA structure, cell membrane permeability, mitochondrial mass, mitochondrial membrane potential and cytochrome C release. The plates were then scanned using an automated fluorescent cellular imager ArrayScanr (Thermo Scientific Cellomics).

SMILES	anhedonia (sucrose preference), single compound treatment [1]	resilience (SI), single compound treatment [1]	plasma ALP, AST, ALT (liver function) and BUN (renal function) [2]	LDH assay, % of vehicle control [3]
O=C(O)CCc1ccc(O)c(O)c1 [DHCA, 3(3,4-dihydroxy-phenyl) propionic acid]	neither treatment significantly promoted resilience (Supplementary Fig. 7a) or alleviate anhedonia	neither treatment significantly promoted resilience	neither phytochemical induced significant changes in any of the indexes	100%
COc1cc(-c2[o+]c3cc(O)cc(O)c3cc2O[C@@H]2O[C@H](CO)[C@@H](O)[C@H](O)[C@H]2O)cc(OC)c1O [Mal-gluc]	neither treatment significantly promoted resilience (Supplementary Fig. 7a) or alleviate anhedonia	neither treatment significantly promoted resilience	neither phytochemical induced significant changes in any of the indexes	100%
